Assay results: patent US11548900B2, “Oxazino-quinazoline and oxazino-quinoline type compound, preparation method and uses thereof” (BEIJING SCITECH-MQ PHARMACEUTICALS LIMITED, priority 2018, dated 2023)
pIC50: −log10 of the molar value.

Columns and labels:
HER2 kinase = HER2 kinase (Homo sapiens (Human), UniProt P04626); assay: Inhibition of HER2 kinase activity (ULight-labeled PolyGT substrate); format: biochemical; conditions: HER2 kinase 10 nM, ATP 10 μM, 2 hours
Outline: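 HER2 kinase at 10 nM with 10 μM ATP and 100 nM ULight-PolyGT, 5 min enzyme–compound preincubation, then 2 h reaction at room temperature in the dark. Compounds at 11 3-fold concentrations, 2.5 μM top to 0.042 nM, 1% DMSO, duplicates. TR-FRET 665/615 ratio; IC50 from inhibition versus DMSO and no-compound controls.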

BT474 cells = assay: Inhibition of cell proliferation, BT474 (CCK-8, 72 h); format: cell-based
Outline: (§1)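 BT474 and HCC827 seeded at 10,000 and 3000 cells/well respectively, cultured overnight, then exposed to 10-point 3-fold compound dilutions (top stock 10 mM; 0.25% DMSO final) for 72 h. Viability by CCK-8, OD450; survival normalised to untreated and cell-free blanks, IC50 from curve fit.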

EGFR kinase = EGFR kinase (Homo sapiens (Human), UniProt P00533); assay: Inhibition of EGFR kinase activity (ULight-labeled JAK-1 (Tyr1023) peptide substrate); format: biochemical; conditions: EGFR kinase 0.35 nM, ATP 150 μM, 2 hours
Outline: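 TR-FRET kinase assay: 0.35 nM EGFR, 150 μM ATP, 100 nM substrate, 2 h at room temperature in the dark after 5 min enzyme-compound preincubation, 1% DMSO. Compounds tested as 11-point 3-fold series, 2.5 μM to 0.042 nM final, duplicate; IC50 from 665/615 nm ratio-based inhibition.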

HCC827 cells = assay: Inhibition of cell proliferation, HCC827 (CCK-8, 72 h); format: cell-based; conditions: 72 h incubation
Outline: as §1

[1] = Homo sapiens, BT-474, 72 h incubation

Chain of EGFR kinase (P00533 25-1210): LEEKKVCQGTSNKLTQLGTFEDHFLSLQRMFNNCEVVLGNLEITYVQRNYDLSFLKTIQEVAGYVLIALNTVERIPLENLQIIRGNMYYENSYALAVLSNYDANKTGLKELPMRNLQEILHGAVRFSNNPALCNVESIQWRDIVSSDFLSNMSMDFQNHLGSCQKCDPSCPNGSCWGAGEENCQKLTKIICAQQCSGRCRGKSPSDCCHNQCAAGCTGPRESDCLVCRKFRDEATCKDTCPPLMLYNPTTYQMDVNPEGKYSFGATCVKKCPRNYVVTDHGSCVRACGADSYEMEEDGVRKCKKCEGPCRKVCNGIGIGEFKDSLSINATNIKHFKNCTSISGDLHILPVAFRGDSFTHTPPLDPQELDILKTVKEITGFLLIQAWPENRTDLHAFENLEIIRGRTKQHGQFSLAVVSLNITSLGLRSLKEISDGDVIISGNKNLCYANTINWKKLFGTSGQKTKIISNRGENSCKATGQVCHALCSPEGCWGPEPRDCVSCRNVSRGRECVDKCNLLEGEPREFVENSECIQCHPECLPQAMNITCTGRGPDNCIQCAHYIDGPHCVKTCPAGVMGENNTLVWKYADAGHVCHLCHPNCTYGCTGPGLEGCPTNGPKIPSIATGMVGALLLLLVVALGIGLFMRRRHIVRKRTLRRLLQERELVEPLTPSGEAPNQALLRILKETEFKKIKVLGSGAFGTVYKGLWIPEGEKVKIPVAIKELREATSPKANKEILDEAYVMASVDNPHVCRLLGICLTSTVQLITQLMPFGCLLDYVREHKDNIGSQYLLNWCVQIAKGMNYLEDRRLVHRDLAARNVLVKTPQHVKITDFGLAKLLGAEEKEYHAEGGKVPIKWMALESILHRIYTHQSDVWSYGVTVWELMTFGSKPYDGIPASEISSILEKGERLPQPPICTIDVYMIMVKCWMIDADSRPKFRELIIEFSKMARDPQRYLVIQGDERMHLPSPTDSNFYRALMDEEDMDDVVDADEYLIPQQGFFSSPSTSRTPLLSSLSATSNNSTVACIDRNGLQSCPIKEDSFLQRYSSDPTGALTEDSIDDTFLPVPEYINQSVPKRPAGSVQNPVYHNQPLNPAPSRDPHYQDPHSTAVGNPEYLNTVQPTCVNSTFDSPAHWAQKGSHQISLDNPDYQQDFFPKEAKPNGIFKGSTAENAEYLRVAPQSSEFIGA
Chain of HER2 kinase (P04626 23-1255): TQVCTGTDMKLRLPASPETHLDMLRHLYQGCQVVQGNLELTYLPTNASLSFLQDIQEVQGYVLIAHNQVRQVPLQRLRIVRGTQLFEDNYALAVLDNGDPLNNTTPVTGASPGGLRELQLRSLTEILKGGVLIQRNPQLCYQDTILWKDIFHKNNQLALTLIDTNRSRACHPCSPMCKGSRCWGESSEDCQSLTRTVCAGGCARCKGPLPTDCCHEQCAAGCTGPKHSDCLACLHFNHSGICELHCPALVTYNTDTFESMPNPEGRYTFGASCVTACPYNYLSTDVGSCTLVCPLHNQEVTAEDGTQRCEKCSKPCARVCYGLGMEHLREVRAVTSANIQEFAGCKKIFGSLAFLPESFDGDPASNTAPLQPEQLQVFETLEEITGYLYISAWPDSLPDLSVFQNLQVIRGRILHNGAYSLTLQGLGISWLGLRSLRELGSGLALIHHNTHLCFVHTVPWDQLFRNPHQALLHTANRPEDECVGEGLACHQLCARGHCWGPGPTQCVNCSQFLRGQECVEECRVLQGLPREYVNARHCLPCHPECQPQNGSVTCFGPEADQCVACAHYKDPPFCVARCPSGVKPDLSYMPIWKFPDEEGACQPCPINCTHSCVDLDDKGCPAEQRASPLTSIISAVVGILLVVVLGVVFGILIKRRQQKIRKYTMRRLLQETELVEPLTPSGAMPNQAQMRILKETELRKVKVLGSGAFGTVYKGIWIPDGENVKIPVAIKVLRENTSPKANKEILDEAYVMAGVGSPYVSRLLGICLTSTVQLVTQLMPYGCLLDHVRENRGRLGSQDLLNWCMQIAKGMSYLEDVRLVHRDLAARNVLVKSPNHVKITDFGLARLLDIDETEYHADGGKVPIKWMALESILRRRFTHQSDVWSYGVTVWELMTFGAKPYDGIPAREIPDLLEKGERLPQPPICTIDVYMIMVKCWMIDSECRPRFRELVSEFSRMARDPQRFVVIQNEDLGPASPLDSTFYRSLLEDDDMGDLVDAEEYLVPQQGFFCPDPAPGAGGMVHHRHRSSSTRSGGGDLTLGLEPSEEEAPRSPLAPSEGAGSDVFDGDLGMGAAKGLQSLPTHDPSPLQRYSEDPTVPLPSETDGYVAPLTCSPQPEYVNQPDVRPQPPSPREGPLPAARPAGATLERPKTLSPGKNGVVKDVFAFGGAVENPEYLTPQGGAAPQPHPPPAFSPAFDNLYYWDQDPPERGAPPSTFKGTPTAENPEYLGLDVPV

Row | Compound | pIC50 (HER2 kinase) | pIC50 (BT474 cells; [1]) | pIC50 (EGFR kinase) | pIC50 (HCC827 cells; Homo sapiens) | pIC50 (BT474 cells; 72 h incubation) | pIC50 (HCC827 cells)
1 | CN(C)C/C=C/C(=O)N1CCOc2c1ccc1ncnc(Nc3ccc(Oc4ccccc4F)cc3)c21 [Example 50, (E)-4-(dimethylamino)-1-(10-((4-(2-fluorophenoxy)phenyl)amino)-2,3-dihydro-4H-[1,4]oxazino[2,3-f]quinazolin-4-yl)but-2-en-1-one] | ≥ 7.30 | ≥ 7.30 | ≥ 7.30 | 5.30 to 6.30 |  | 
2 | CN(C)C/C=C/C(=O)N1CCOc2c1ccc1ncnc(Nc3ccc(Oc4ccc(F)cc4)cc3)c21 [Example 51, (E)-4-(dimethylamino)-1-(10-((4-(4-fluorophenoxy)phenyl)amino)-2,3-dihydro-4H-[1,4]oxazino[2,3-f]quinazolin-4-yl)but-2-en-1-one] | ≥ 7.30 | ≥ 7.30 | ≥ 7.30 | 5.30 to 6.30 |  | 
3 | CN(C)C/C=C/C(=O)N1CCOc2c1ccc1ncnc(Nc3ccc(OCc4nccs4)cc3)c21 [Example 65, (E)-4-(dimethylamino)-1-(10-((4-(thiazol-2-ylmethoxy)phenyl)amino)-2,3-dihydro-4H-[1,4]oxazino[2,3-f]quinazolin-4-yl)but-2-en-1-one] | ≥ 7.30 | ≥ 7.30 | ≥ 7.30 | 6.30 to 7.30 |  | 
4 | Cc1cccc(Oc2ccc(Nc3ncnc4ccc5c(c34)OCCN5C(=O)/C=C/CN(C)C)cc2)c1 [Example 47, (E)-4-(dimethylamino)-1-(10-((4-(m-tolyloxy)phenyl)amino)-2,3-dihydro-4H-[1,4]oxazino[2,3-f]quinazolin-4-yl)but-2-en-1-one] | ≥ 7.30 | ≥ 7.30 | ≥ 7.30 | 5.30 to 6.30 |  | 
5 | CN(C)C/C=C/C(=O)N1CCOc2c1ccc1ncnc(Nc3ccc(Oc4cc(Cl)ccc4F)cc3)c21 [Example 72, (E)-4-(dimethylamino)-1-(10-((4-(5-chloro-2-fluorophenoxy)phenyl)amino)-2,3-dihydro-4H-[1,4]oxazino[2,3-f]quinazolin-4-yl)but-2-en-1-one] | ≥ 7.30 | ≥ 7.30 | ≥ 7.30 | 6.30 to 7.30 |  | 
6 | CN(C)C/C=C/C(=O)N1CCOc2c1ccc1ncnc(Nc3ccc(OCc4cccnc4)cc3)c21 [Example 76, (E)-4-(dimethylamino)-1-(10-((4-(pyridin-3-ylmethoxy)phenyl)amino)-2,3-dihydro-4H-[1,4]oxazino[2,3-f]quinazolin-4-yl)but-2-en-1-one] | ≥ 7.30 | ≥ 7.30 | 5.30 to 6.30 | 6.30 to 7.30 |  | 
7 | CC(Oc1ccc(Nc2ncnc3ccc4c(c23)OCCN4C(=O)/C=C/CN(C)C)cc1)c1cccc(F)c1 (stereo not drawn) [Example 74, (E)-4-(dimethylamino)-1-(10-((4-(1-(3-fluorophenyl)ethoxy)phenyl)amino)-2,3-dihydro-4H-[1,4]oxazino[2,3-f]quinazolin-4-yl)but-2-en-1-one] | ≥ 7.30 | ≥ 7.30 | 6.30 to 7.30 | 5.30 to 6.30 |  | 
8 | COc1ccccc1Oc1ccc(Nc2ncnc3ccc4c(c23)OCCN4C(=O)/C=C/CN(C)C)cc1 [Example 53, (E)-4-(dimethylamino)-1-(10-((4-(2-methoxyphenoxy)phenyl)amino)-2,3-dihydro-4H-[1,4]oxazino[2,3-f]quinazolin-4-yl)but-2-en-1-one] | ≥ 7.30 | ≥ 7.30 | ≥ 7.30 | 5.30 to 6.30 |  | 
9 | CN(C)C/C=C/C(=O)N1CCOc2c1ccc1ncnc(Nc3ccc(OCc4cccc(F)c4)c(F)c3)c21 [Example 69, (E)-4-(dimethylamino)-1-(10-((4-((3-fluorobenzyl)oxy)-3-fluorophenyl)amino)-2,3-dihydro-4H-[1,4]oxazino[2,3-f]quinazolin-4-yl)but-2-en-1-one] | ≥ 7.30 | ≥ 7.30 | ≥ 7.30 | 5.30 to 6.30 |  | 
10 | CN(C)C/C=C/C(=O)N1CCOc2c1ccc1ncnc(Nc3ccc(Oc4cccnc4)cc3)c21 [Example 54] | ≥ 7.30 | ≥ 7.30 | 5.30 to 6.30 | 5.30 to 6.30 |  | 
11 | CN(C)C/C=C/C(=O)N1CCOc2c1ccc1ncnc(Nc3ccc(OCc4cccc(Cl)c4)cc3)c21 [Example 83, (E)-1-(10-((4-((3-chlorobenzyl)oxy)phenyl)amino)-2,3-dihydro-4H-[1,4]oxazino[2,3-f]quinazolin-4-yl)-4-(dimethylamino)but-2-en-1-one] | ≥ 7.30 | ≥ 7.30 | ≥ 7.30 | 5.30 to 6.30 |  | 
12 | CN(C)C/C=C/C(=O)N1CCOc2c1ccc1ncnc(Nc3ccc(OCc4cccc(C(F)(F)F)c4)cc3)c21 [Example 62] | ≥ 7.30 |  | ≥ 7.30 |  | 6.30 to 7.30 | < 5.30
13 | CC(C)N(C)C/C=C/C(=O)N1CCOc2c1ccc1ncnc(Nc3ccc(OCc4ccccn4)c(Cl)c3)c21 [Example 111, (E)-1-(10-((3-chloro-4-(pyridin-2-ylmethoxy)phenyl)amino)-2,3-dihydro-4H-[1,4]oxazino[2,3-f]quinazolin-4-yl)-4-(isopropyl(methyl)amino)but-2-en-1-one] | ≥ 7.30 | ≥ 7.30 | ≥ 7.30 | 5.30 to 6.30 |  | 
14 | Cc1ccc(F)c(Oc2ccc(Nc3ncnc4ccc5c(c34)OCCN5C(=O)/C=C/CN(C)C)cc2)c1 [Example 71, (E)-4-(dimethylamino)-1-(10-((4-(2-fluoro-5-methylphenoxy)phenyl)amino)-2,3-dihydro-4H-[1,4]oxazino[2,3-f]quinazolin-4-yl)but-2-en-1-one] | ≥ 7.30 | ≥ 7.30 | ≥ 7.30 | 5.30 to 6.30 |  | 
15 | O=C(/C=C/CN1CCCC1)N1CCOc2c1ccc1ncnc(Nc3ccc(OCc4ccccn4)c(Cl)c3)c21 [Example 106, (E)-1-(10-((3-chloro-4-(pyridin-2-ylmethoxy)phenyl)amino)-2,3-dihydro-4H-[1,4]oxazino[2,3-f]quinazolin-4-yl)-4-(pyrrolidin-1-yl)but-2-en-1-one] | ≥ 7.30 | ≥ 7.30 | ≥ 7.30 | 6.30 to 7.30 |  | 
